Experimental data reported in patent US20240400584A1, “COMPOUNDS AND METHODS FOR MODULATING SPLICING” (REMIX THERAPEUTICS INC., priority 2021, published 2024).

Tests used:
HTT [1] = experiment: RT-qPCR splicing assay, HTT AJ/CJ mRNA; format: cell-based, human; conditions: A673 or K562 cells; for IC50: decrease in canonical junction mRNA; for AC50: increase in alternative junction mRNA
In short: (§1)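 Cells: A673 (DMEM/10% FBS) or K562 (IMDM/10% FBS). Dosing: 11-pt 3-fold, top 10 uM final, DMSO ≤0.25%, 24 h, 37° C. Readout: one-step RT-qPCR on lysate, CJ vs AJ isoforms; ΔCt vs housekeeper, ΔΔCt vs DMSO, 2^(−ΔΔCt) RQ → % response.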

HTT [2] = experiment: Gene panel canonical junction qPCR assay, HTT CJ mRNA (Table 7); format: cell-based, human; conditions: read-out: HTT CJ mRNA decrease IC50
In short: (§2)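 A673 or K562 cells treated with compound; canonical exon-junction mRNA measured by RT-qPCR with junction-spanning primers/probe, normalised to GAPDH, GUSB or PPIA and DMSO (ΔΔCt, RQ). Percentage response set from fixed ΔCt assay windows, fitted to a 4-parameter logistic; IC50 is concentration giving 50% CJ decrease.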

Target C = experiment: Gene panel canonical junction qPCR assay, Target C CJ mRNA (Table 7); format: cell-based, human; conditions: Homo sapiens, read-out: Target C CJ mRNA decrease IC50
In short: as §2

[3] = test system: HiBit-tagged HTT in K562 cells; experiment: HiBiT protein abundance assay, HTT; format: cell-based, human; conditions: HiBiT-modified K562 cells, 24 hours, luminescence
Method: (§3) Compounds described herein were used to screen for effects on quantitative protein abundance using a HiBit assay system (Promega). Quantitative protein abundance was determined by measuring the protein levels of HiBit-tagged protein targets expressed in cell culture via luminescence using the Nano-Glo HiBiT Lytic Detection System, which uses a split complementation assay format to reconstitute NanoBiT enzyme to generate a luminescent signal. A protein abundance assay was developed such that endogenous protein targets could be modified with the HiBiT peptide tag and their abundance could be assessed after compound treatment. Briefly, K562 cell lines containing a HiBiT-modification were treated with various compounds described herein (e.g., compounds of Formulas (I)). After treatment for 24 hours, the protein abundance of a specific target was determined by measuring luminescence.
(§4) Cells were maintained in IMDM with 10% FBS. Before the assay, cells were diluted with […] growth media (IMDM+[…] media) and were seeded in a 384-well plate at a density of 10000 cells/well (for each cell line listed in Table 8). Each compound was prepared as a 10-point 3-fold serial dilution in DMSO with the top dose at a final concentration of 10 μM in the well. Unmodified K562 cells were added at the previously specified density with DMSO to serve as an assay baseline and positive control (PC) and DMSO only with the respective modified cell lines was added to the negative control (NC) columns. Final DMSO concentration was kept at or below 0.25% o. Treated cell plates were placed in an incubator at 37° C. with […] for 24 hours. After 24 hours, 25 μL of Complete HiBit Lytic reagent was added to each well at room temperature (e.g. one plate requiring 10 mL Lytic Buffer, 100 μL LgBiT Protein, 200 μL Lytic Substrate), shaken for 5 minutes at 600 RPM, then left to sit for 10 minutes for signal to stabilize before reading on a Spark Cyto plate reader (Tecan) with a 500 ms measurement time.
(§5) To determine compound effects on protein abundance of each target in Table 9, the percent response for each respective cell line was calculated at each compound concentration as follows:
(§6) For the normalized response at each concentration, a four-parameter logistical regression was fit to the data and the response was interpolated at the […] to determine a concentration for protein abundance at 50% o (IC50) the untreated control.

[4] = test system: HiBit-tagged MYB in K562 cells; experiment: HiBiT protein abundance assay, MYB; format: cell-based, human; conditions: HiBiT-modified K562 cells, 24 hours, luminescence
Method: as §3, §4, §5, §6

[5] = test system: HiBit-tagged Target C in K562 cells; experiment: HiBiT protein abundance assay, Target C; format: cell-based, human; conditions: HiBiT-modified K562 cells, 24 hours, luminescence
Method: as §3, §4, §5, §6

MYB [6] = experiment: RT-qPCR splicing assay, MYB AJ/CJ mRNA; format: cell-based; conditions: Homo sapiens, A673 or K562 cells, 24 hours; for IC50: decrease in canonical junction mRNA; for AC50: increase in alternative junction mRNA
In short: as §1

SMN2 = experiment: Gene panel canonical junction qPCR assay, SMN2 CJ mRNA (Table 7); format: cell-based; conditions: Homo sapiens, read-out: SMN2 CJ mRNA decrease IC50
In short: as §2

MYB [7] = experiment: Gene panel canonical junction qPCR assay, MYB CJ mRNA (Table 7); format: cell-based; conditions: Homo sapiens, read-out: MYB CJ mRNA decrease IC50
In short: as §2

IC50 (Target C) [µM] | IC50 (HTT [1]; Homo sapiens, 24 h) [µM] | IC50 (HTT [2]; Homo sapiens) [µM] | IC50 (MYB [6]) [µM] | IC50 (SMN2) [µM] | IC50 (MYB [7]) [µM] | SMILES | IC50 (HTT [1]; 24 hours) [µM] | AC50 (HTT [1]; 24 hours) [µM] | IC50 (HTT [2]) [µM] | IC50 [3] [µM] | IC50 [4] [µM] | IC50 [5] [µM] | AC50 (HTT [1]; Homo sapiens, 24 h) [µM] | AC50 (MYB [6]) [µM]
1 to 10 | > 10 | > 10 | – | – | – | CC1(C)CC(Nc2ccc3c(n2)CCOc2cc(-c4cn[nH]c4)ccc2-3)CC(C)(C)N1 [Compound 141] | – | – | – | 1 to 10 | < 0.1 | 1 to 10 | > 10 | –
0.1 to 1 | < 0.1 | < 0.1 | 0.1 to 1 | < 0.1 | 0.1 to 1 | COc1cc(-c2ccc3c(c2)COc2nc(N4CCNC(C(C)(C)C)C4)ccc2-3)cnn1 (centres unmarked) [Compound 304] | – | – | – | – | – | – | < 0.1 | 0.1 to 1
1 to 10 | 0.1 to 1 | 0.1 to 1 | 1 to 10 | 0.1 to 1 | 1 to 10 | COc1cc(-c2ccc3c(c2)COc2nc(N4CCC(N(C)CC5CC5)C4)ccc2-3)cnn1 (centres unmarked) [Compound 308] | – | – | – | – | – | – | 1 to 10 | 1 to 10
0.1 to 1 | < 0.1 | < 0.1 | 0.1 to 1 | < 0.1 | 0.1 to 1 | COc1cc(-c2ccc3c(c2)COc2nc(N4CCC(C)(NC(C)C)C4)ccc2-3)cnn1 (centres unmarked) [Compound 309] | – | – | – | – | – | – | < 0.1 | 0.1 to 1
1 to 10 | 0.1 to 1 | 0.1 to 1 | 0.1 to 1 | 0.1 to 1 | 0.1 to 1 | CCN(C)C1CCN(c2ccc3c(n2)OCc2cc(-c4cnnc(OC)c4)ccc2-3)C1 (centres unmarked) [Compound 310] | – | – | – | – | – | – | 0.1 to 1 | 1 to 10
1 to 10 | 0.1 to 1 | 0.1 to 1 | 1 to 10 | 0.1 to 1 | 1 to 10 | COc1cc(-c2ccc3c(c2)COc2nc(N4CCC(N(C)C(C)C)C4)ccc2-3)cnn1 (centres unmarked) [Compound 311] | – | – | – | – | – | – | 0.1 to 1 | 0.1 to 1
> 10 | 0.1 to 1 | 0.1 to 1 | 1 to 10 | 0.1 to 1 | 1 to 10 | COc1cc(-c2ccc3c(c2)COc2nc(N4CCC(N5CCC5)C4)ccc2-3)cnn1 (centres unmarked) [Compound 312] | – | – | – | – | – | – | 1 to 10 | 1 to 10
> 10 | > 10 | > 10 | > 10 | > 10 | > 10 | CC(C)(C)NC1CCN(c2ccc3c(n2)OCc2cc(-c4c(F)cn[nH]c4=O)ccc2-3)C1 (centres unmarked) [Compound 315, 4-{3-[3-(tert-butylamino)pyrrolidin-1-yl]-6H-isochromeno[3,4-b]pyridin-8-yl}-5-fluoro-2H-pyridazin-3-one] | – | – | – | – | – | – | > 10 | > 10
0.1 to 1 | < 0.1 | < 0.1 | 0.1 to 1 | < 0.1 | 0.1 to 1 | COc1cc(-c2ccc3c(c2)COc2nc(N4CCC(NC(C)(C)C(C)C)C4)ccc2-3)cnn1 (centres unmarked) [Compound 316, N-(2,3-dimethylbutan-2-yl)-1-[8-(6-methoxypyridazin-4-yl)-6H-isochromeno[3,4-b]pyridin-3-yl]pyrrolidin-3-amine] | – | – | – | – | – | – | 0.1 to 1 | 0.1 to 1
0.1 to 1 | 0.1 to 1 | 0.1 to 1 | 0.1 to 1 | < 0.1 | 0.1 to 1 | COc1cc(-c2ccc3c(c2)COc2nc(N4CCN[C@H](C(C)(C)C)C4)ccc2-3)cnn1 [Compound 317, 5-{3-[(3R)-3-tert-butylpiperazin-1-yl]-6H-isochromeno [3,4-b]pyridin-8-yl}-3-methoxypyridazine] | – | – | – | – | – | – | 0.1 to 1 | 0.1 to 1
0.1 to 1 | < 0.1 | < 0.1 | 0.1 to 1 | < 0.1 | 0.1 to 1 | COc1cc(-c2ccc3c(c2)COc2nc(N4CCN[C@@H](C(C)(C)C)C4)ccc2-3)cnn1 [Compound 318, 5-{3-[(3S)-3-tert-butylpiperazin-1-yl]-6H-isochromeno[3,4-b]pyridin-8-yl}-3-methoxypyridazine] | – | – | – | – | – | – | 0.1 to 1 | 0.1 to 1
1 to 10 | 1 to 10 | 1 to 10 | > 10 | 0.1 to 1 | > 10 | COc1cc(-c2ccc3c(c2)COc2nc(N4CCC(N(C)C5CC5)C4)ccc2-3)cnn1 (centres unmarked) [Compound 320] | – | – | – | – | – | – | 1 to 10 | 1 to 10
1 to 10 | 0.1 to 1 | 0.1 to 1 | 1 to 10 | 0.1 to 1 | 1 to 10 | CCN(CC)C1CCN(c2ccc3c(n2)OCc2cc(-c4cnnc(OC)c4)ccc2-3)C1 (centres unmarked) [Compound 321] | – | – | – | – | – | – | 0.1 to 1 | 1 to 10

SMILES | IC50 (Target C) [µM] | IC50 (HTT [1]; Homo sapiens, 24 h) [µM] | IC50 (HTT [2]; Homo sapiens) [µM] | IC50 (MYB [6]) [µM] | IC50 (SMN2) [µM] | IC50 (MYB [7]) [µM] | IC50 (HTT [1]; 24 hours) [µM] | AC50 (HTT [1]; 24 hours) [µM] | IC50 (HTT [2]) [µM] | IC50 [3] [µM] | IC50 [4] [µM] | IC50 [5] [µM] | AC50 (HTT [1]; Homo sapiens, 24 h) [µM] | AC50 (MYB [6]) [µM]
c1cnn(-c2ccc3c(c2)OCc2nc(N[C@@H]4C[C@H]5CC[C@@H](C4)N5)ccc2-3)c1 [Compound 119] | 1 to 10 | – | – | – | – | – | > 10 | > 10 | > 10 | 0.1 to 1 | 1 to 10 | 1 to 10 | – | –
